As usually defined, the IC50 is the midpoint of a concentration-inhibition curve.

This note sets out measurements from paper PMC9602571, “Discovery of a Dual SENP1 and SENP2 Inhibitor” (International Journal of Molecular Sciences, 2022).

In test [1] the target is T1, SENP1 (Homo sapiens, UniProt Q9P0U3).
T1 construct: Human recombinant, His6-SENP1 Catalytic Domain; His6 (N); purchased Boston Biochem (Bio-Techne AG) E-700
T1 sequence (Q9P0U3 450-613 limits assumed): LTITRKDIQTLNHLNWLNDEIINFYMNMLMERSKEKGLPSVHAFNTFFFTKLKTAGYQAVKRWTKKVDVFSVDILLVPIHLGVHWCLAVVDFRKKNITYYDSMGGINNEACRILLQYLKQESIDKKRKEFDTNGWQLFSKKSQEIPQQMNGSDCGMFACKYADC
The experiment in a line: SENP1 endopeptidase activity with proSUMO3 (SDS gel). It is filed as biochemical. Particulars: inhibitor 200 µM, proSUMO3 5 µM, 37 °C, 1 h. As to the method: Measurements were performed using six different inhibitor concentrations starting at 200 μM of 11 with three-fold dilution. Human recombinant, His6-SENP1 Catalytic Domain (Boston Biochem Cat# E-700, Bio-Techne AG, Zug, Switzerland) was prepared in reaction buffer (50 mM HEPES, 150 mM NaCl 0.5 mM EDTA, 1 mM DTT, pH 7.5, 0.01% CHAPS) as 555 nM solution. A 20 mM compound DMSO stock-solution (1.1 µL) was added to the freshly prepared 555 nM enzyme solution (98.9 µL). […] Then, 50 µM proSUMO3 (5 µL) was added to the freshly prepared enzyme inhibitor solution (45 µL) and incubated for 60 min at 37 °C and subsequently the reaction was stopped by adding 4 × Laemmli-Buffer (16.7 µL) and denaturing the protein at 100 °C for 30 min. Those solutions (10 µL) were loaded on a casted 15% sodium dodecyl sulfate polyacrylamide gel and separated on a Mini-PROTEAN Tetra Cell (Bio-Rad, Hercules, CA, USA). After SDS-PAGE gel electrophoresis separation, the gels were stained with staining solution Bio-Safe Coomassie Brilliant Blue G-250 (BioRad) for 60 min. De-staining was performed with 40% (v/v) methanol, 10% (v/v) glacial acetic acid, 50% (v/v) Milli-Q water until protein bands became visible.

Test [2] concerns the target T2, SENP2 (Homo sapiens, UniProt Q9HC62).
T2 construct: Human recombinant catalytic domain expressed in E. coli; purchased Enzo BML-UW9765; host or cells: E. coli
T2 sequence (Q9HC62 396-560 limits assumed): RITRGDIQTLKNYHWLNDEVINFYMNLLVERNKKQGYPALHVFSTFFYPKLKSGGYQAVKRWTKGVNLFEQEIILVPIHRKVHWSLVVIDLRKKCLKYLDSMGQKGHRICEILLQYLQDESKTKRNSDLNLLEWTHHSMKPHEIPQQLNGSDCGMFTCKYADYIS
The experiment in a line: Fluorogenic SENP2 assay, SUMO1-AMC substrate. The format is biochemical. The conditions noted are these: n = 2. As to the method: The IC50 measurements were conducted at Reaction Biology Corporation, Malvern, PA, USA, with two replications using 10 concentrations starting at 200 μM with a three-fold dilution. Curve fits were performed where the enzyme activities at the highest concentration of compounds were less than 65%. UCH-L3 I was used as a control inhibitor. To SENP2 (Enzo Cat# BML-UW9765, Human recombinant catalytic domain expressed in E. coli.) in reaction buffer (50 mM HEPES, 150 mM NaCl, 0.5 mM EDTA, 1 mM DTT, pH 7.5, 0.01% CHAPS) was delivered the compound stock solution by acoustic technology (Echo550; nanoliter range) and subsequently incubated for 15 min at ambient temperature. The substrate SUMO1-AMC (R&D Systems Cat# UL-551-050, Lot# 07613314A, Fluorescence labeled full-length SUMO1 protein) was delivered to the well-plate to initiate the reaction. The enzyme activities were monitored (Ex/Em = 355/460 nm) as a time-course measurement of the increase in fluorescence signal from SUMO1-AMC for 90 min at ambient temperature. The data were analyzed by taking the slope (signal/time) of linear portion of measurement. The slope was calculated using Excel and the curve fits were performed using GraphPad Prism7 with a four-parameter least-squares fit. The final reaction conditions contained 0.015 nM SENP2 and 300 nM SUMO1/2 or 3-AMC.

The target in test [3] is T1, SENP1. The experiment in a line: Photo crosslinking experiments with SENP1. Particulars: competitor 400 µM, probe 56 200 µM. It is filed as binding. Here is the method: A buffer exchange of the commercially available 6 × His-SENP1 Protein (Boston Biochem Cat# E-700) to a 50 mM HEPES, 150 mM NaCl; 0.5 mM EDTA, 1 mM DTT, pH 7.5 was performed. A total of 200 μM of the photo affinity probe 56 with or without competitor molecule 11 (400 μM) was incubated in 10 uM SENP1 for 30 min at 0 °C. Subsequently, the mixtures were irradiated in a Proma UV exposure unit equipped with four 8 Watt lamps (Hitachi FL8BL-8, ~350 nm) for 30 min at 0 °C. Then, 50 µL of the crosslinked proteins were mixed with freshly prepared click mix solution (50 μL; 1 mM CuSO4, 1 mM TCEP, 100 uM THPTA from a 5 mM DMSO stock, dissolved in Milli-Q Water) and a 10 mM stock solution of azide fluor 545 (1 μL) and incubated at 0 °C for 14 h. […] Protein samples for SDS-PAGE were first prepared in 1 × Laemmli sample buffer (diluted from 4 × Laemmli sample buffer (ROTI®Load), and subsequently denatured at 100 °C for 15 min. After SDS-PAGE gel electrophoresis separation, the fluorescence was visualized (Ex. 520 nm, Em. 575 nm) on the SDS PAGE gel using ImageQuant^TM 4000 LAS (GE Healthcare, Chicago, IL, USA). Secondly, the gels were stained with Bio-Safe Coomassie Brilliant Blue G-250 (BioRad) for 60 min. De-staining was performed with 40% (v/v) methanol, 10% (v/v) glacial acetic acid, 50% (v/v) Milli-Q water until protein bands became visible.

The target in test [4] is T1, SENP1. The experiment in a line: Fluorogenic SENP1 assay, SUMO2-AMC substrate. The format is biochemical. The conditions noted are these: n = 2. As to the method: Human recombinant, His6-SENP1 Catalytic Domain (Boston Biochem Cat# E-700, Bio-Techne AG, Zug, Switzerland) was prepared in reaction buffer (50 mM HEPES, 150 mM NaCl, 0.5 mM EDTA, 1 mM DTT, pH 7.5, 0.01% CHAPS). To this solution, a 20 mM or 50 mM inhibitor stock solution in DMSO was added and the mixture was incubated for 15 min at ambient temperature. […] The data were analyzed by taking the slope (signal/time) of the linear portion of measurement. The slope was calculated using Excel and the curve fits were performed using GraphPad Prism7 with a four-parameter least-squares fit. The final reaction conditions contained 0.02 nM SENP1 and 300 nM SUMO1/2 or 3-AMC).

On to `O=C(Cn1nnc(-c2ccccc2)n1)N1c2ccccc2NC(=O)C12CCCC2` [Compound 11, 1′-[2-(5-Phenyl-2H-1,2,3,4-tetrazol-2-yl)acetyl]-3′,4′-dihydro-1′H-spiro[cyclopentane-1,2′-quinoxalin]-3′-one], for which the “inhibition of SENP1 endopeptidase activity (proSUMO3 maturation)” value in test [1] was “full inhibition”. For the same compound, the IC50 amounted to 2.3 µM in test [2] and 43 µM in test [4]. Also, the “fluorescently labelled band of SENP1 in competition with photo probe 56” value in test [3] is recorded as “significantly decreased”.
